According to the NIST ThermoML archive (doi:10.1016/j.jct.2015.07.029):

Assay: mn = molality of the nth substance listed, in mol/kg
Conditions: 101.3 kPa, Liquid, Alternating current cell with electrodes

O=C(O)c1ccc(O)c(O)c1 [3,4-dihydroxybenzoic acid] + O
electrical conductivity [S/m]
Conditions	m1 = 0.001	m1 = 0.002	m1 = 0.004	m1 = 0.006	m1 = 0.008	m1 = 0.01
288.15 K	0.0048	0.007	0.0102	0.0126	0.0146	0.0164
291.15 K	0.0051	0.0074	0.0107	0.0132	0.0154	0.0173
294.15 K	0.0054	0.0078	0.0113	0.014	0.0162	0.0182
298.15 K	0.0058	0.0084	0.0121	0.015	0.0174	0.0196
